The assay concerns T1, QsGH97a.
T1 construct: pSMT3 His-SUMO fusion in E. coli BL21(DE3), tag cut by Ulp1; probable dimer; forward primer encodes MIRHIALFI; catalytic Glu378, Glu459, Glu483
Put plainly: p-nitrophenol release at […] nm, Michaelis-Menten fit. As to conditions: 20 mM Tris-HCl pH 8.0, 50 °C, no added metal ion. The class given is biochemical, Qipengyuania seohaensis.

Each structure is given as a SMILES string.

These results are taken from article PMC10086023, “The effect of barium and strontium on activity of glucoamylase QsGH97a from Qipengyuania seohaensis SW-135” (Scientific Reports, 2023).

As for `O=[N+]([O-])c1ccc(O[C@H]2O[C@H](CO)[C@@H](O)[C@H](O)[C@H]2O)cc1` [pNPαGlu, p-Nitrophenyl-α-D-glucopyranoside], the Km (in general, the concentration of substrate that gives half-maximal velocity) amounted to 200 ± 20 µM.
